Four compounds from paper PMC6349854, “GLUT1 and GLUT3 involvement in anthocyanin gastric transport- Nanobased targeted approach” (Scientific Reports, 2019) can be followed below.

For one data set, the system named is MKN-28 cells. As to the kind of experiment: Transepithelial transport of anthocyanins through MKN-28 gastric barrier (apical to basolateral). The data set is classed as in vitro ADME, human. The conditions noted are these: for paracellular transport efficiency: 4 °C; for paracellular transport efficiency / transport efficiency at 180 minutes: apical pH 5.0, basolateral pH 7.4, anthocyanin 500 µM; for transport efficiency at 180 minutes: 37 °C. Here is the method: (§1) Transepithelial transport experiments were performed using a similar procedure from the one described elsewhere. […] Cells were cultured at 37 °C in an atmosphere of 5% CO2 and the medium was changed every two days.
(§2) After this treatment, media was removed and cells were washed with Hanks’ medium (HBSS), pH 7.4 at the basolateral side and with HBSS pH 5.0 at the apical side. Anthocyanin solution (500 µM) in HBSS pH 5.0 was added to the apical side of the cells and HBSS containing 2% fetal bovine serum free of polyphenols was added to the basolateral compartment. Transepithelial transport was followed as a function of time, at 4 °C and 37 °C. Samples were taken from the basolateral side and replaced by fresh medium. The samples (150 µL) were acidified with HCl 6 M to a final concentration of 1% and frozen at −18 °C until HPLC analysis.

The test system of data set [1] is Mv3glc transport through MKN-28 barrier. The data set is described as follows: Effect of transporter inhibitors on anthocyanin transport through MKN-28 barrier. The data set is classed as cell-based, human. Here is the method: as §1, §2

With `COc1cc(-c2[o+]c3cc(O)cc(O)c3cc2O[C@@H]2O[C@H](CO)[C@@H](O)[C@H](O)[C@H]2O)cc(OC)c1O` [Mv3glc, Malvidin-3-O-glucoside], the paracellular transport efficiency entry with MKN-28 cells is recorded as “below 2%”. For the same compound, the “transport efficiency at 180 minutes” value with MKN-28 cells (180 min) was ~ 10%. Also, the “inhibitory effect on transport when both transporters inhibited simultaneously” value in the data set with MKN-28 cells (GLUT1 and GLUT3 silenced together (AuNP@GLUT1 + 3), 24 h + 24 h) is “much more pronounced and additive”. In addition, the “relative reduction of transport” value with MKN-28 cells (after silencing of GLUT1 or GLUT3 by nanoconjugates 24 h + 24 h, 180 min, versus respective control (AuNP@PEG)) is listed as “around 25%”.
In the case of `COc1cc(-c2[o+]c3cc(O)cc(O)c3cc2O[C@@H]2O[C@H](CO)[C@@H](O)[C@H](O)[C@H]2O)ccc1O` [Pn3glc, Peonidin-3-O-glucoside], the paracellular transport efficiency result in the data set on MKN-28 cells was “below 2%”. The “transport efficiency at 180 minutes” value in the data set on MKN-28 cells (180 min) is reported as ~ 10%.
In the case of `CCCN(CCC)S(=O)(=O)c1ccc(C(=O)O)cc1` [Probenecid], the “effect on Mv3glc transport” value in data set [1] (inhibitor 50 µM, apical pH 5.0, basolateral pH 7.4) was “no effect”.
On to `C=C1[C@@H](C)[C@H]2[C@H](Cc3ccccc3)NC(=O)[C@]23OC(=O)/C=C/[C@H](O)CCC[C@@H](C)C/C=C/[C@H]3[C@@H]1O` [cytochalasin B], for which the “inhibitory effect on anthocyanin transport” value in data set [1] (cytochalasin B 50 µM added simultaneously with AuNP@GLUT1 + 3) is recorded as “inhibitory effect was higher”.
